In patent US20240239752A1, “BICYCLIC HETEROAROMATIC INHIBITORS OF KLK5” (BioCryst Pharmaceuticals, Inc., priority 2021, published 2024) one finds IC50 data, which are given here for 26 molecules.

For the experiment, the target named is T1, recombinant human KLK5 (Homo sapiens, UniProt Q9Y337).
T1 construct: purchased Novoprotein or R&D Systems C415 or 1108-SE
T1 sequence (Q9Y337 23-293): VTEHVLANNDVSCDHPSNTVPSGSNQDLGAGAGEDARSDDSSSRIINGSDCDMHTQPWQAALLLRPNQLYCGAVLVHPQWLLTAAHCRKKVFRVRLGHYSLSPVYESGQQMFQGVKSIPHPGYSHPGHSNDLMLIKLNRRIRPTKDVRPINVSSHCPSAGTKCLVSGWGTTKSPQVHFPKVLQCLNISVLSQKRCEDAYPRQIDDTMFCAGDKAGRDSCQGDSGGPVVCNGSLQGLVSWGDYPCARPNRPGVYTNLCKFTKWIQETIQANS
Kind of experiment: Kallikrein (KLK) 5 enzymatic assay (Boc-VPR-AMC fluorogenic substrate). The experiment is classed as biochemical. The settings on record: recombinant human KLK5 0.1 μg/well, Boc-VPR-AMC 100 μM, pH 7.5, room temperature, 1% DMSO; tested a minimum of three times. In short, it runs like this:
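Fluorogenic rate assay at pH 7.5 (0.1 M NaH2PO4, 1% DMSO, room temperature), run at least three times per compound. Compound was premixed with 0.1 μg/well recombinant human KLK5 before adding 100 μM Boc-VPR-AMC; AMC release was read at ex 380/em 460 nm, and IC50 derived from inhibition of rate vs DMSO control.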
By IC50 is commonly meant the point on the concentration scale where inhibition reaches its midpoint. `CC(C)COC(=O)N1CC[C@@H](n2nc(COc3ccccc3CC(=O)O)c3cc(-c4ccc5ccnc(N)c5c4)ccc32)C1` [Compound 364c, (R)-2-(2-((5-(1-aminoisoquinolin-7-yl)-1-(1-(isobutoxycarbonyl)pyrrolidin-3-yl)-1H-indazol-3-yl)methoxy)phenyl)acetic acid]: the IC50 was below 1000 nM. For the molecule `CC(C)COC(=O)N1CC[C@@H](n2nc(COc3ccccc3CC(=O)O)c3cc(-c4cccc5c(N)nccc45)ccc32)C1` [Compound 365b, (R)-2-(2-((5-(1-aminoisoquinolin-5-yl)-1-(1-(isobutoxycarbonyl)pyrrolidin-3-yl)-1H-indazol-3-yl)methoxy)phenyl)acetic acid], the concentration for half-maximal inhibition (IC50) is below 1000 nM. As to `Cc1cccc(OC2CC3(CCCC3)c3ccc(-c4cccc5c(N)nccc45)cc32)c1CC(=O)O` (centres unmarked) [Compound 366c, 2-(2-((5′-(1-aminoisoquinolin-5-yl)-2′,3′-dihydrospiro[cyclopentane-1,1′-inden]-3′-yl)oxy)-6-methylphenyl)acetic acid], the IC50 is below 1000 nM. Take `Cc1cccc(OC2CC3(CCCC3)c3ccc(-c4ccc5ccnc(N)c5c4)cc32)c1CC(=O)O` (centres unmarked) [Compound 367b, 2-(2-((5′-(1-aminoisoquinolin-7-yl)-2′,3′-dihydrospiro[cyclopentane-1,1′-inden]-3′-yl)oxy)-6-methylphenyl)acetic acid]: the half-maximal inhibitory concentration (IC50) was below 1000 nM. `COC(=O)N1CCC2(CC1)CC(Oc1ccccc1CC(=O)O)c1cc(-c3ccc4ccnc(N)c4c3)ccc12` (centres unmarked) [Compound 370c, 2-(2-((5-(1-aminoisoquinolin-7-yl)-1′-(methoxycarbonyl)-2,3-dihydrospiro[indene-1,4′-piperidin]-3-yl)oxy)phenyl)acetic acid]: the IC50 is below 1000 nM. Then `COC(=O)N1CCC2(CC1)CC(Oc1ccccc1CC(=O)O)c1cc(-c3cccc4c(N)nccc34)ccc12` (centres unmarked) [Compound 371b, 2-(2-((5-(1-aminoisoquinolin-5-yl)-1′-(methoxycarbonyl)-2,3-dihydrospiro[indene-1,4′-piperidin]-3-yl)oxy)phenyl)acetic acid], with below 1000 nM. In the case of `CCOC(=O)N1CCC2(CC1)CC(Oc1ccccc1CC(=O)O)c1cc(-c3cccc4c(N)nccc34)ccc12` (centres unmarked) [Compound 372b, 2-(2-((5-(1-aminoisoquinolin-5-yl)-1′-(ethoxycarbonyl)-2,3-dihydrospiro[indene-1,4′-piperidin]-3-yl)oxy)phenyl)acetic acid], the IC50 is below 1000 nM.

For the molecule `CC(C)OC(=O)N1CCC2(CC1)CC(Oc1ccccc1CC(=O)O)c1cc(-c3ccc4ccnc(N)c4c3)ccc12` (centres unmarked) [Compound 374c, 2-(2-((5-(1-aminoisoquinolin-7-yl)-1′-(isopropoxycarbonyl)-2,3-dihydrospiro[indene-1,4′-piperidin]-3-yl)oxy)phenyl)acetic acid], the IC50 was below 1000 nM. With `CC(C)OC(=O)N1CCC2(CC1)CC(Oc1ccccc1CC(=O)O)c1cc(-c3cccc4c(N)nccc34)ccc12` (centres unmarked) [Compound 375b, 2-(2-((5-(1-aminoisoquinolin-5-yl)-1′-(isopropoxycarbonyl)-2,3-dihydrospiro[indene-1,4′-piperidin]-3-yl)oxy)phenyl)acetic acid], the IC50 is below 1000 nM. For the molecule `Nc1nccc2c(-c3ccc4c(c3)C(Oc3ccccc3CC(=O)O)CC43CCCCC3)cccc12` (centres unmarked) [Compound 376f, 2-(2-((5′-(1-aminoisoquinolin-5-yl)-2′,3′-dihydrospiro[cyclohexane-1,1′-inden]-3′-yl)oxy)phenyl)acetic acid], the IC50 is below 1000 nM. With `Cc1cccc(OC2CC3(CCCCC3)c3ccc(-c4cccc5c(N)nccc45)cc32)c1CC(=O)O` (centres unmarked) [Compound 377c, 2-(2-((5′-(1-aminoisoquinolin-5-yl)-2′,3′-dihydrospiro[cyclohexane-1,1′-inden]-3′-yl)oxy)-6-methylphenyl)acetic acid], the IC50 is below 1000 nM.

Turning to `Cc1cccc(OC2CC3(CCCCC3)c3ccc(-c4ccc5ccnc(N)c5c4)cc32)c1CC(=O)O` (centres unmarked) [Compound 378b, 2-(2-((5′-(1-aminoisoquinolin-7-yl)-2′,3′-dihydrospiro[cyclohexane-1,1′-inden]-3′-yl)oxy)-6-methylphenyl)acetic acid], the IC50 is below 1000 nM.

In the case of `COC(=O)N1CCC2(CC1)CC(Oc1cccc(C)c1CC(=O)O)c1cc(-c3ccc4ccnc(N)c4c3)ccc12` (centres unmarked) [Compound 381e, 2-(2-((5-(1-aminoisoquinolin-7-yl)-1′-(methoxycarbonyl)-2,3-dihydrospiro[indene-1,4′-piperidin]-3-yl)oxy)-6-methylphenyl)acetic acid], the IC50 was below 1000 nM. Turning to `COC(=O)N1CCC2(CC1)CC(Oc1cccc(C)c1CC(=O)O)c1cc(-c3cccc4c(N)nccc34)ccc12` (centres unmarked) [Compound 382b, 2-(2-((5-(1-aminoisoquinolin-5-yl)-1′-(methoxycarbonyl)-2,3-dihydrospiro[indene-1,4′-piperidin]-3-yl)oxy)-6-methylphenyl)acetic acid], the IC50 was below 1000 nM.

With `Cc1cccc(OC2CC3(CCN(C(=O)OC(C)C)CC3)c3ccc(-c4ccc5ccnc(N)c5c4)cc32)c1CC(=O)O` (centres unmarked) [Compound 383c, 2-(2-((5-(1-aminoisoquinolin-7-yl)-1′-(isopropoxycarbonyl)-2,3-dihydrospiro[indene-1,4′-piperidin]-3-yl)oxy)-6-methylphenyl)acetic acid], the IC50 is below 1000 nM. Then `Cc1cccc(OC2CC3(CCN(C(=O)OC(C)C)CC3)c3ccc(-c4cccc5c(N)nccc45)cc32)c1CC(=O)O` (centres unmarked) [Compound 384b, 2-(2-((5-(1-aminoisoquinolin-5-yl)-1′-(isopropoxycarbonyl)-2,3-dihydrospiro[indene-1,4′-piperidin]-3-yl)oxy)-6-methylphenyl)acetic acid], with below 1000 nM; and `CCC(=O)N1CCC2(CC1)CC(Oc1ccccc1CC(=O)O)c1cc(-c3cccc4c(N)nccc34)ccc12` (centres unmarked) [Compound 385c, 2-(2-((5-(1-aminoisoquinolin-5-yl)-1′-propionyl-2,3-dihydrospiro[indene-1,4′-piperidin]-3-yl)oxy)phenyl)acetic acid], with below 1000 nM; and `CCC(=O)N1CCC2(CC1)CC(Oc1ccccc1CC(=O)O)c1cc(-c3ccc4ccnc(N)c4c3)ccc12` (centres unmarked) [Compound 386b, 2-(2-((5-(1-aminoisoquinolin-7-yl)-1′-propionyl-2,3-dihydrospiro[indene-1,4′-piperidin]-3-yl)oxy)phenyl)acetic acid], with below 1000 nM.

`CCC(=O)N1CCC2(CC1)CC(Oc1cccc(C)c1CC(=O)O)c1cc(-c3cccc4c(N)nccc34)ccc12` (centres unmarked) [Compound 387c, 2-(2-((5-(1-aminoisoquinolin-5-yl)-1′-propionyl-2,3-dihydrospiro[indene-1,4′-piperidin]-3-yl)oxy)-6-methylphenyl)acetic acid]: the IC50 is below 1000 nM.

Regarding `CCC(=O)N1CCC2(CC1)CC(Oc1cccc(C)c1CC(=O)O)c1cc(-c3ccc4ccnc(N)c4c3)ccc12` (centres unmarked) [Compound 388b, 2-(2-((5-(1-aminoisoquinolin-7-yl)-1′-propionyl-2,3-dihydrospiro[indene-1,4′-piperidin]-3-yl)oxy)-6-methylphenyl)acetic acid], the half-inhibitory concentration (IC50) was below 1000 nM.

`CC(C)COC(=O)N1CCC2(CC1)CC(Oc1ccccc1CC(=O)O)c1cc(-c3ccc4ccnc(N)c4c3)ccc12` (centres unmarked) [Compound 389c, 2-(2-((5-(1-aminoisoquinolin-7-yl)-1′-(isobutoxycarbonyl)-2,3-dihydrospiro[indene-1,4′-piperidin]-3-yl)oxy)phenyl)acetic acid]: the IC50 is below 1000 nM. As to `CC(C)COC(=O)N1CCC2(CC1)CC(Oc1ccccc1CC(=O)O)c1cc(-c3cccc4c(N)nccc34)ccc12` (centres unmarked) [Compound 390b, 2-(2-((5-(1-aminoisoquinolin-5-yl)-1′-(isobutoxycarbonyl)-2,3-dihydrospiro[indene-1,4′-piperidin]-3-yl)oxy)phenyl)acetic acid], the IC50 is below 1000 nM. `Nc1nccc2ccc(-c3ccc4c(c3)C(Oc3ccccc3CC(=O)O)CC43CCCCC3)cc12` (centres unmarked) [Compound 391b, 2-(2-((5′-(1-aminoisoquinolin-7-yl)-2′,3′-dihydrospiro[cyclohexane-1,1′-inden]-3′-yl)oxy)phenyl)acetic acid]: the IC50 was below 1000 nM. On to `CC(C)(C)OC(=O)N1CCC2(CC1)C[C@H](Oc1ccccc1CC(=O)O)c1cc(-c3cccc4c(N)nccc34)ccc12` [Compound 392f, (S)-2-(2-((5-(1-aminoisoquinolin-5-yl)-1′-(tert-butoxycarbonyl)-2,3-dihydrospiro[indene-1,4′-piperidin]-3-yl)oxy)phenyl)acetic acid], for which the IC50 is below 1000 nM. Consider `CC(C)(C)OC(=O)N1CCC2(CC1)C[C@H](Oc1ccccc1CC(=O)O)c1cc(-c3ccc4ccnc(N)c4c3)ccc12` [Compound 393b, (S)-2-(2-((5-(1-aminoisoquinolin-7-yl)-1′-(tert-butoxycarbonyl)-2,3-dihydrospiro[indene-1,4′-piperidin]-3-yl)oxy)phenyl)acetic acid], for which the IC50 is below 1000 nM.

Regarding `CC(C)(C)OC(=O)N1CCC2(CC1)C[C@@H](Oc1ccccc1CC(=O)O)c1cc(-c3cccc4c(N)nccc34)ccc12` [Compound 394e, (R)-2-(2-((5-(1-aminoisoquinolin-5-yl)-1′-(tert-butoxycarbonyl)-2,3-dihydrospiro[indene-1,4′-piperidin]-3-yl)oxy)phenyl)acetic acid], the IC50 is below 1000 nM.
